Reference: ChEMBL document CHEMBL3400091, “4-Dechloro-14-deoxy-oxacyclododecindione and 14-deoxy-oxacylododecindione, two inhibitors of inducible connective tissue growth factor expression from the imperfect fungus Exserohilum rostratum” (Bioorg Med Chem, 2015)
Active and inactive are the calls of the source. No cut-off for these calls is given here.

Key:
HepG2 [1] = assay: Inhibition of TGF-beta-induced human CTGF promoter activity transiently transfected in human HepG2 cells assessed as reduction in mmp2 expression preincubated at 700 nM for 1 hr before TGF-beta stimulation measured after 6 hrs by quantitative real-time PCR analysis; type: cell-based
HepG2 [2] = assay: Inhibition of TGF-beta-induced human CTGF promoter activity transiently transfected in human HepG2 cells assessed as reduction in type 1 collagen alpha1 expression preincubated at 700 nM for 1 hr before TGF-beta stimulation measured after 6 hrs by quantitative real-time PCR analysis; type: cell-based
MDA-MB-231 [3] = assay: Cytotoxicity against human MDA-MB-231 cells at 1.4 uM after 48 hrs by XTT assay; type: cell-based; details: mda-mb-231, 48 h
HepG2 [4] = assay: Inhibition of TGF-beta-induced human CTGF promoter activity transiently transfected in human HepG2 cells assessed as CTGF protein expression preincubated at 714 nM for 1 hr before TGF-beta stimulation measured after 8 hrs by Western blot analysis; type: cell-based
HepG2 [5] = assay: Inhibition of TGF-beta-induced human CTGF promoter activity transiently transfected in human HepG2 cells assessed as CTGF expression preincubated at 700 nM for 1 hr before TGF-beta stimulation measured after 4 hrs by quantitative real-time PCR analysis; type: cell-based
HepG2 [6] = assay: Inhibition of TGF-beta-induced human CTGF promoter activity transiently transfected in human HepG2 cells assessed as reduction in alpha-smooth muscle actin expression preincubated at 700 nM for 1 hr before TGF-beta stimulation measured after 6 hrs by quantitative real-time PCR analysis; type: cell-based
HepG2 [7] = assay: Inhibition of TGF-beta-induced human CTGF promoter activity transiently transfected in human HepG2 cells assessed as reduction in tgf-beta expression preincubated at 700 nM for 1 hr before TGF-beta stimulation measured after 6 hrs by quantitative real-time PCR analysis; type: cell-based
MDA-MB-231 [8] = assay: Antimigratory activity against human MDA-MB-231 cells assessed as reduction in formation of tubule-like structures at 568 nM after 16 hrs by matrigel assay relative to control; type: functional; parameters: scale not given: the % may be the effect or the level left
[9] = (§1) Inhibition of TGF-beta-induced human CTGF promoter activity transiently transfected in human HepG2 cells after 16 hrs by luciferase reporter assay; type: cell-based; details: HepG2, 16 h
HepG2 [10] = assay: as §1; type: cell-based
HepG2 [11] = assay: Cytotoxicity against human HepG2 cells at 1.4 uM after 48 hrs by XTT assay; type: cell-based; details: hepg2, 48 h
MDA-MB-231 [12] = assay: Antimigratory activity against human MDA-MB-231 cells assessed as reduction in formation of tubule-like structures after 16 hrs by matrigel assay relative to control; type: functional, cell-based
HepG2 [13] = assay: Inhibition of TGF-beta-induced human CTGF promoter activity transiently transfected in human HepG2 cells assessed as reduction in plasminogen activator inhibitor-1 expression preincubated at 700 nM for 1 hr before TGF-beta stimulation measured after 6 hrs by quantitative real-time PCR analysis; type: cell-based
[14] = (§2) Binding affinity to (AGCCAGACA)9-MLP element (unknown origin) transiently transfected in human HepG2 cells assessed as inhibition of TGF-beta-induced Smad-dependent transcriptional activity preincubated for 1 hr before TGF-beta stimulation measured after 16 hrs by luciferase reporter assay; type: cell-based
HepG2 [15] = assay: Inhibition of TGF-beta-induced human CTGF promoter activity transiently transfected in human HepG2 cells assessed as reduction in mmp2 expression preincubated at 680 nM for 1 hr before TGF-beta stimulation measured after 6 hrs by quantitative real-time PCR analysis; type: cell-based
HepG2 [16] = assay: Inhibition of TGF-beta-induced human CTGF promoter activity transiently transfected in human HepG2 cells assessed as reduction in tgf-beta expression preincubated at 680 nM for 1 hr before TGF-beta stimulation measured after 6 hrs by quantitative real-time PCR analysis; type: cell-based
HepG2 [17] = assay: Inhibition of TGF-beta-induced human CTGF promoter activity transiently transfected in human HepG2 cells assessed as reduction in plasminogen activator inhibitor-1 expression preincubated at 680 nM for 1 hr before TGF-beta stimulation measured after 6 hrs by quantitative real-time PCR analysis; type: cell-based
MDA-MB-231 [18] = assay: Antimigratory activity against human MDA-MB-231 cells assessed as reduction in formation of tubule-like structures at 136 nM after 16 hrs by matrigel assay relative to control; type: functional; parameters: scale not given: the % may be the effect or the level left
HepG2 [19] = assay: Inhibition of TGF-beta-induced human CTGF promoter activity transiently transfected in human HepG2 cells assessed as reduction in type 1 collagen alpha1 expression preincubated at 680 nM for 1 hr before TGF-beta stimulation measured after 6 hrs by quantitative real-time PCR analysis; type: cell-based
HepG2 [20] = assay: Inhibition of TGF-beta-induced human CTGF promoter activity transiently transfected in human HepG2 cells assessed as CTGF protein expression preincubated at 407 nM for 1 hr before TGF-beta stimulation measured after 8 hrs by Western blot analysis; type: cell-based
HepG2 [21] = assay: Inhibition of TGF-beta-induced human CTGF promoter activity transiently transfected in human HepG2 cells assessed as CTGF expression preincubated at 680 nM for 1 hr before TGF-beta stimulation measured after 4 hrs by quantitative real-time PCR analysis; type: cell-based
HepG2 [22] = assay: Inhibition of TGF-beta-induced human CTGF promoter activity transiently transfected in human HepG2 cells assessed as reduction in alpha-smooth muscle actin expression preincubated at 680 nM for 1 hr before TGF-beta stimulation measured after 6 hrs by quantitative real-time PCR analysis; type: cell-based
MDA-MB-231 [23] = assay: Antimigratory activity against human MDA-MB-231 cells assessed as reduction in formation of tubule-like structures at 275 nM after 16 hrs by matrigel assay relative to untreated control; type: functional; parameters: scale not given: the % may be the effect or the level left
HepG2 [24] = assay: Inhibition of TGF-beta-induced human CTGF promoter activity transiently transfected in human HepG2 cells assessed as CTGF protein expression preincubated at 3144 nM for 1 hr before TGF-beta stimulation measured after 8 hrs by Western blot analysis; type: cell-based
HepG2 [25] = assay: Inhibition of TGF-beta-induced human CTGF promoter activity transiently transfected in human HepG2 cells assessed as reduction in tgf-beta expression preincubated at 3.2 uM for 1 hr before TGF-beta stimulation measured after 6 hrs by quantitative real-time PCR analysis; type: cell-based
HepG2 [26] = assay: Inhibition of TGF-beta-induced human CTGF promoter activity transiently transfected in human HepG2 cells assessed as reduction in alpha-smooth muscle actin expression preincubated at 3.2 uM for 1 hr before TGF-beta stimulation measured after 6 hrs by quantitative real-time PCR analysis; type: cell-based
HepG2 [27] = assay: Inhibition of TGF-beta-induced human CTGF promoter activity transiently transfected in human HepG2 cells assessed as reduction in type 1 collagen alpha1 expression preincubated at 3.2 uM for 1 hr before TGF-beta stimulation measured after 6 hrs by quantitative real-time PCR analysis; type: cell-based
HepG2 [28] = assay: Inhibition of TGF-beta-induced human CTGF promoter activity transiently transfected in human HepG2 cells assessed as reduction in mmp2 expression preincubated at 3.2 uM for 1 hr before TGF-beta stimulation measured after 6 hrs by quantitative real-time PCR analysis; type: cell-based
HepG2 [29] = assay: Cytotoxicity against human HepG2 cells at 3.2 uM after 48 hrs by XTT assay; type: cell-based; details: hepg2, 48 h
MDA-MB-231 [30] = assay: Cytotoxicity against human MDA-MB-231 cells at 3.2 uM after 48 hrs by XTT assay; type: cell-based; details: mda-mb-231, 48 h
HepG2 [31] = assay: Inhibition of TGF-beta-induced human CTGF promoter activity transiently transfected in human HepG2 cells assessed as reduction in plasminogen activator inhibitor-1 expression preincubated at 3.2 uM for 1 hr before TGF-beta stimulation measured after 6 hrs by quantitative real-time PCR analysis; type: cell-based
MDA-MB-231 [32] = assay: Antimigratory activity against human MDA-MB-231 cells assessed as reduction in formation of tubule-like structures at 2.4 uM after 16 hrs by matrigel assay relative to control; type: functional, cell-based
HepG2 [33] = assay: Inhibition of TGF-beta-induced human CTGF promoter activity transiently transfected in human HepG2 cells assessed as CTGF expression preincubated at 3.2 uM for 1 hr before TGF-beta stimulation measured after 4 hrs by quantitative real-time PCR analysis; type: cell-based
HepG2 [34] = assay: as §2, with “activity measured as remaining activity” for “activity”, “preincubated at 2.2 uM” for “preincubated”; type: cell-based

With `C/C1=C\CCC(C)C(C)OC(=O)Cc2c(Cl)c(O)cc(O)c2C1=O` (stereo unspecified) the inhibition (HepG2 [1]) was “Active”, the inhibition (HepG2 [2]) was “Active” and the Activity (MDA-MB-231 [3]) was “Non-toxic”. For the same molecule, the inhibition (HepG2 [4]) was “inactive”, the inhibition (HepG2 [5]) was “Active” and the inhibition (HepG2 [6]) was “Active”. For the same molecule, the inhibition (HepG2 [7]) was “Active”, the Activity (MDA-MB-231 [8]) was >70% and the IC50 [9] was 0.336 µM. For the same molecule, the inhibition (HepG2 [10]) was “Dose-dependent effect”, the Activity (HepG2 [11]) was “Non-toxic” and the Activity (MDA-MB-231 [12]) was “Dose-dependent effect”. For the same molecule, the inhibition (HepG2 [13]) was “Active” and the IC50 [14] was 0.21 µM.

Work on `C[C@H]1CCCCCC(=O)c2c(O)cc(O)cc2CC(=O)O1` yielded an IC50 [9] of 86.4 µM and an IC50 [14] of 34.2 µM.

With `C/C1=C\CCC(C)(O)C(C)OC(=O)Cc2c(Cl)c(O)cc(O)c2C1=O` (stereo unspecified) the inhibition (HepG2 [15]) was “Active”, the inhibition (HepG2 [16]) was “Active” and the inhibition (HepG2 [17]) was “Active”. For the same molecule, the Activity (MDA-MB-231 [18]) was >70%, the inhibition (HepG2 [19]) was “Active” and the inhibition (HepG2 [20]) was “Active”. For the same molecule, the IC50 [9] was 0.136 µM, the inhibition (HepG2 [10]) was “Dose-dependent effect” and the Activity (MDA-MB-231 [12]) was “Dose-dependent effect”. The inhibition (HepG2 [21]) was “Active”, the IC50 [14] was 0.136 µM and the inhibition (HepG2 [22]) was “Active”.

With `c1ccc(-c2n[nH]cc2-c2ccnc3ccccc23)nc1` the Activity (MDA-MB-231 [23]) was 30%.

Work on `C[C@H]1CCC/C=C/C(=O)c2c(O)cc(O)cc2CC(=O)O1` [DEHYDROCURVULARIN] yielded an IC50 [9] of 4.4 µM and an IC50 [14] of 1.7 µM.

In the case of `C/C1=C\CCC(C)C(C)OC(=O)Cc2cc(O)cc(O)c2C1=O` (stereo unspecified), the inhibition (HepG2 [24]) is reported as “inactive”, the inhibition (HepG2 [25]) is reported as “Active” and the inhibition (HepG2 [26]) is reported as “Active”. For the same molecule, the inhibition (HepG2 [27]) was “Active”, the inhibition (HepG2 [28]) was “Active” and the IC50 [9] was 1.8 µM. The inhibition (HepG2 [10]) was “Dose-dependent effect”, the Activity (MDA-MB-231 [12]) was “Dose-dependent effect” and the Activity (HepG2 [29]) was “Non-toxic”. For the same molecule, the Activity (MDA-MB-231 [30]) was “Non-toxic”, the inhibition (HepG2 [31]) was “Active” and the Activity (MDA-MB-231 [32]) was “Active”. For the same molecule, the inhibition (HepG2 [33]) was “Active”, the IC50 [14] was > 2.2 µM and the inhibition (HepG2 [34]) was “Active”.
